In patent US8058242B2, “Chimeric proteins with natriuretic activity” (The University of Queensland, priority 2004, dated 2011):

Assays:
rat GC-A = target: T1, rat GC-A (Rattus norvegicus, UniProt P18910); assay: Cell cyclic GMP elevations in HEK-293 cells stably expressing rat GC-A (Example 4); type: cell-based; conditions: 0.1 μM; 293 cells over-expressing GC-A
T1 construct: expressed in transfected cells
T1 sequence (P18910 29-1057): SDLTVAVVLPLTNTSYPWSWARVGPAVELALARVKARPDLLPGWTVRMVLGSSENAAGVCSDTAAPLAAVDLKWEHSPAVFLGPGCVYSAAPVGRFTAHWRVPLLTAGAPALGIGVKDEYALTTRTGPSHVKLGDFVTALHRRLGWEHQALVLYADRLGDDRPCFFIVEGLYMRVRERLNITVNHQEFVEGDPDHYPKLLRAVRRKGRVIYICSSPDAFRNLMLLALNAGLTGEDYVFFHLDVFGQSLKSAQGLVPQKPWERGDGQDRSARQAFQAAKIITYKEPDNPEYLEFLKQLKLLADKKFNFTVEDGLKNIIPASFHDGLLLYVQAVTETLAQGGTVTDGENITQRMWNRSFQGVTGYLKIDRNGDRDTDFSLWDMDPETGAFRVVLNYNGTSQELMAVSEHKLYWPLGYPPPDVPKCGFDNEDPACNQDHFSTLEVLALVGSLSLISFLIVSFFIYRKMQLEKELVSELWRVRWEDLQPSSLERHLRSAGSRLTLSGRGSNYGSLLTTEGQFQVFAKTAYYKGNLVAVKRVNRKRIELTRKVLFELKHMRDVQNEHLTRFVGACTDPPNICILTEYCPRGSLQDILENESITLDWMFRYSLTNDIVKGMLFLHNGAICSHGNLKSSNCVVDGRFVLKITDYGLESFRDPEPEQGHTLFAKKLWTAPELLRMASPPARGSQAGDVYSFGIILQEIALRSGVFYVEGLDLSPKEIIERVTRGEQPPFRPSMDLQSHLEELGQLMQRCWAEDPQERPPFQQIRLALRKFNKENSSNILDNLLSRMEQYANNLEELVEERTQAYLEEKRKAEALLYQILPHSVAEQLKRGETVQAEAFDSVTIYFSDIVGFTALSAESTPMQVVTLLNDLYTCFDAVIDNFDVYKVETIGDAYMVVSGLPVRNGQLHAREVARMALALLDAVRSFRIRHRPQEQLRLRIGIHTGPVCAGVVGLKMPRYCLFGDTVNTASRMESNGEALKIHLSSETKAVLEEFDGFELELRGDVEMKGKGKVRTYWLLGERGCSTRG
Source text: The human embryonic kidney 293 (HEK-293) cell line was used for the stable expression of rat GC-A (GC-A/293). Cells expressing rat GC-A (GC-A/293) in the HEK-293 cell line were as previously described (Potter L. R., and Garbers D. L., (1992), J Biol Chem. 26, 14531-4) and determination of cGMP elevations was undertaken as previously described (Chrisman et al. T. D., Schulz, S., Potter, L. R. and Garbers, D. L., (1993,) J. Biol. Chem. (1993) 268 (5), 3698-3703). Responses were expressed as a percentage of the effect produced by ANP.

conscious rabbits = assay: Blood pressure and heart rate in conscious rabbits, intravenous infusion dose-response (Example 8); conditions: for Recovery (MAP) / Recovery Delta SED (MAP): after 1 hour recovery period; for Recovery (MAP) / Recovery Delta SED (MAP) / MAP at final dose / Treatment Effect, change of mean blood pressure during the infusion: Table 10A; for MAP at final dose / Treatment Effect, change of mean blood pressure during the infusion: highest dose; for Treatment Effect, change of mean blood pressure during the infusion: groups 1, 2A and 3; for Diastolic BP, mean difference from control / HR, mean difference from control / Mean BP, mean difference from control / Systolic BP, mean difference from control: 45 min
[1] = tested on: endothelium-intact aortic rings (NPR-C mediated); assay: Aortic ring relaxation, endothelium-intact rings pre-contracted with 40 mM KCl (Example 3); set-up: species or system rat; conditions: for competitive inhibition of the binding of TNPc: endothelium-intact aortic rings, TNPa or TNPb followed by TNPc 0.1 μM; for percentage relaxation of the precontraction by KCl: endothelium-intact rat aortas pre-contracted with 40 mM KCl, peptide 0.1 μM
Procedure: (§1) Male Sprague Dawley rats were killed and the descending thoracic aorta rapidly removed and flushed with physiological solution. After being cleared of adhering fat and connective tissue, 5 mm rings were mounted under 10 g resting tension, between two stainless steel hooks, in organ baths (37° C.) containing carbogenated (95% O2 and 5% CO2) physiological salt solution of the following composition (mM): NaCl, 118.4; NaHCO3, 25; glucose, 11; KCl, 4.7; MgSO4, 1.2; KH2PO4, 1.2 and CaCl2, 2.5. The lower hook was attached to a tissue holder and the upper hook to a force displacement transducer (Grass FTO3). Where indicated endothelial cells were removed by gentle rubbing of the intimal surface with a wire. To confirm the presence or absence of endothelial cells, tissues were precontracted with a sub-maximal concentration of phenylephrine (0.3 μM) and the response to acetylcholine (ACh, 10 μM) observed. Ach-induced relaxation greater than 80% of maximum indicated the presence of endothelium; whereas Ach-induced relaxation less than 10% indicated the absence of endothelium. Ring preparations under resting tension were conditioned by two contraction/relaxation cycles with 40 mM KCl, contracted by a third application of 40 mM KCl and then relaxed with different doses of the venom peptides. Responses were expressed as a percentage relaxation of the precontraction by KCl.

[2] = tested on: endothelium-denuded aortic rings (GC-A mediated); assay: Aortic ring relaxation, endothelium-denuded rings pre-contracted with 40 mM KCl (Example 3); set-up: species or system rat; conditions: for competitive inhibition of the binding of TNPc: endothelium-denuded aortic rings, TNPa or TNPb followed by TNPc 0.1 μM; for percentage relaxation of the precontraction by KCl: endothelium-denuded rat aortas pre-contracted with 40 mM KCl, peptide 0.1 μM
Procedure: as §1

[3] = average of the 3 doses 1.0, 2.0, 4.0 μg/kg/min

Row | Sequence | cGMP elevations, percentage of the effect produced by ANP (rat GC-A) | Recovery (MAP) (conscious rabbits) | Recovery Delta SED (MAP) (conscious rabbits) | Diastolic BP, Average Response SED (conscious rabbits; [3]) | Mean BP (MAP), Average Response SED (conscious rabbits; [3]) | Systolic BP, Average Response SED (conscious rabbits; [3]) | MAP at final dose (conscious rabbits) | Treatment Effect, change of mean blood pressure during the infusion (conscious rabbits) | Diastolic BP, mean difference from control (conscious rabbits; i.v. infusion 1.0 μg/kg/min) | HR, mean difference from control (conscious rabbits; i.v. infusion 1.0 μg/kg/min) | Mean BP, mean difference from control (conscious rabbits; i.v. infusion 1.0 μg/kg/min) | Systolic BP, mean difference from control (conscious rabbits; i.v. infusion 1.0 μg/kg/min) | Diastolic BP, mean difference from control (conscious rabbits; i.v. infusion 2.0 μg/kg/min) | HR, mean difference from control (conscious rabbits; i.v. infusion 2.0 μg/kg/min) | Mean BP, mean difference from control (conscious rabbits; i.v. infusion 2.0 μg/kg/min) | Systolic BP, mean difference from control (conscious rabbits; i.v. infusion 2.0 μg/kg/min) | Diastolic BP, mean difference from control (conscious rabbits; i.v. infusion 4.0 μg/kg/min) | HR, mean difference from control (conscious rabbits; i.v. infusion 4.0 μg/kg/min) | Mean BP, mean difference from control (conscious rabbits; i.v. infusion 4.0 μg/kg/min) | Systolic BP, mean difference from control (conscious rabbits; i.v. infusion 4.0 μg/kg/min) | further results
1 | SDPKIGDGCFGLPLDHIGSVSGLGCNRPVQNRPKK (A portion of a natriuretic peptide) [TNPb] | lesser effects on cGMP elevations | 68.2 mm Hg | 3.5 ± 2.3 mm Hg | −7.8 ± 0.9 mmHg | −9.6 ± 1.1 mmHg | −8.9 ± 1.4 mmHg | 64.7 mm Hg | −11.0 mm Hg | −7.0 mmHg | −3.9 bpm | −8.0 mmHg | −7.9 mmHg | −7.9 mmHg | −5.1 bpm | −9.8 mmHg | −8.8 mmHg | −8.6 mmHg | 4.7 bpm | −11.0 mmHg | −10.0 mmHg | HR, Average Response SED (conscious rabbits; [3]): −1.4 ± 3.5 bpm; competitive inhibition of the binding of TNPc [1]: lack the ability to competitively inhibit the binding of TNPc; percentage relaxation of the precontraction by KCl [1]: approximately 20%; competitive inhibition of the binding of TNPc [2]: lack the ability to competitively inhibit the binding of TNPc; percentage relaxation of the precontraction by KCl [2]: no relaxation
2 | SDSKIGDGCFGLPLDHIGSVSGLGCNRPVQNRPKK (A portion of a natriuretic peptide) [TNPa] | lesser effects on cGMP elevations | 65.3 mm Hg | 3.0 ± 2.9 mm Hg | −7.9 ± 0.9 mmHg | −8.7 ± 1.1 mmHg | −5.7 ± 1.3 mmHg | 62.3 mm Hg | −11.6 mm Hg | −6.0 mmHg | −16.1 bpm | −6.4 mmHg | −2.8 mmHg | −7.7 mmHg | −15.9 bpm | −8.0 mmHg | −4.9 mmHg | −9.9 mmHg | −9.8 bpm | −11.6 mmHg | −9.4 mmHg | competitive inhibition of the binding of TNPc [1]: lack the ability to competitively inhibit the binding of TNPc; percentage relaxation of the precontraction by KCl [1]: approximately 20%; competitive inhibition of the binding of TNPc [2]: lack the ability to competitively inhibit the binding of TNPc; percentage relaxation of the precontraction by KCl [2]: no relaxation
